One compound from patent US9804168B2, “Biomarker discovery in complex biological fluid using bead or particle based libraries and diagnostic kits and therapeutics” (OPKO Pharmaceuticals, LLC, priority 2011, dated 2017) can be followed below.

The experiment has as its system anti-DNP antibody. As to the kind of experiment: FACS bead model: DNP beads versus acetyl beads with anti-DNP antibody in sera. In kind it is binding. To be noted: FIG. 40; 1,000 ug/mL sera concentration. On the procedure: The Mean fluorescence intensity (MFI) separation was greatest at the higher dilution of 1,000 ug/mL sera.

Structures are written as SMILES.

Consider `O=[N+]([O-])c1ccc(NCCO)c([N+](=O)[O-])c1` [ethanolamine-DNP], for which the “competition with binding of DNP (on a plate) to anti-DNP antibody” value was “direct competition”.
